Reference: patent US12077503B2, “Substituted cyclic amides and their use as herbicides” (FMC CORPORATION, priority 2015, dated 2024)

Tests used:
Type in all cases: in vivo
[1] = system: pigweed (Amaranthus retroflexus); assay: Test A postemergence; settings: Amaranthus retroflexus, post-emergence, 240 h
Procedure, shortened: (§1)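 Each rating is a visual injury score from 0 to 100 given about 10 d after treatment, judged against untreated controls kept alongside in the greenhouse. In loam soil–sand blend, seeds got a preemergence directed soil spray, while postemergence plants were 2 to 10 cm tall at spraying.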

[2] = system: Galium (catchweed bedstraw, Galium aparine); assay: Test A postemergence; settings: Galium, post-emergence, 240 h
Procedure, shortened: as §1

Kochia (Kochia scoparia) [3] = assay: Test A postemergence; settings: Bassia scoparia, post-emergence, 240 h
Procedure, shortened: as §1

corn (Zea mays) = assay: Test A postemergence; settings: Zea mays, post-emergence, 240 h
Procedure, shortened: as §1

[4] = system: pigweed (Amaranthus retroflexus); assay: Test A preemergence; settings: Amaranthus retroflexus, pre-emergence, 240 h, read-out: Plant response rating, Pigweed
[5] = system: ryegrass, Italian (Italian ryegrass, Lolium multiflorum); assay: Test A preemergence; settings: Lolium multiflorum, pre-emergence, 240 h, read-out: Plant response rating, Ryegrass, Italian
Procedure, shortened: as §1

[6] = system: ragweed (common ragweed, Ambrosia elatior); assay: Test A preemergence; settings: Ambrosia artemisiifolia, pre-emergence, 240 h, read-out: Plant response rating, Ragweed
Procedure, shortened: as §1

Kochia (Kochia scoparia) [7] = assay: Test A preemergence; settings: Bassia scoparia, pre-emergence, 240 h, read-out: Plant response rating, Kochia
Procedure, shortened: as §1

[8] = system: giant foxtail (Setaria faberii); assay: Test A preemergence; settings: Setaria faberi, pre-emergence, 240 h, read-out: Plant response rating, Foxtail, Giant
Procedure, shortened: as §1

[9] = system: barnyardgrass (Echinochloa crus-galli); assay: Test A preemergence; settings: Echinochloa crus-galli, pre-emergence, 240 h, read-out: Plant response rating, Barnyardgrass
Procedure, shortened: as §1

[10] = system: ducksalad (Heteranthera limosa); assay: Test B flooded paddy test; settings: Heteranthera limosa, Flood, 250 g ai/ha; scale of 0 to 100 where 0 is no effect and 100 is complete control; read-out: Ducksalad plant response rating
Procedure, shortened: (§2)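 Rating scale 0–100 (visual, vs untreated controls) after a 13–15 d greenhouse period; application to the flood layer, 3 cm above soil and maintained; plants at 2-leaf stage when treated.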

rice (Oryra sativa) = assay: Test B flooded paddy test; settings: Oryza sativa, Flood, 250 g ai/ha; scale of 0 to 100 where 0 is no effect and 100 is complete control; read-out: Rice plant response rating
Procedure, shortened: as §2

[11] = system: barnyardgrass (Echinochloa crus-galli); assay: Test B flooded paddy test; settings: Echinochloa crus-galli, Flood, 250 g ai/ha; scale of 0 to 100 where 0 is no effect and 100 is complete control; read-out: Barnyardgrass plant response rating
Procedure, shortened: as §2

[12] = system: sedge, umbrella (small-flower umbrella sedge, Cyperus difformis); assay: Test B flooded paddy test; settings: Cyperus difformis, Flood, 250 g ai/ha; scale of 0 to 100 where 0 is no effect and 100 is complete control; read-out: Sedge, Umbrella plant response rating
Procedure, shortened: as §2

[13] = 125 g ai/ha, preemergence, visual rating after approx. 10 d, 0 to 100 scale where 0 is no effect and 100 is complete control
[14] = Preemergence, 31 g ai/ha, 0 to 100 scale (0 no effect, 100 complete control)

SMILES: CN1CC[C@H](c2ccc3c(c2)OC(F)(F)O3)[C@@H](C(=O)Nc2cccc(F)c2F)C1=O [Compound 812]
- pest or weed control at 125 g/ha ([1]; 125 g ai/ha, postemergence, visual injury rating after approximately 10 d, read-out: Pigweed plant response rating (0 to 100 scale, 0 no effect, 100 complete control)): 0%
- pest or weed control at 31 g/ha ([1]; Postemergence, 31 g ai/ha, visual injury after approx. 10 d, 0 to 100 scale, 0 no effect, 100 complete control, read-out: Plant response rating, Pigweed): 0%
- pest or weed control at 125 g/ha ([2]; 125 g ai/ha, postemergence, visual injury rating after approximately 10 d, read-out: Galium plant response rating (0 to 100 scale, 0 no effect, 100 complete control)): 50%
- pest or weed control at 31 g/ha ([2]; Postemergence, 31 g ai/ha, visual injury after approx. 10 d, 0 to 100 scale, 0 no effect, 100 complete control, read-out: Plant response rating, Galium): 20%
- pest or weed control at 125 g/ha (Kochia (Kochia scoparia) [3]; 125 g ai/ha, postemergence, visual injury rating after approximately 10 d, read-out: Kochia plant response rating (0 to 100 scale, 0 no effect, 100 complete control)): 20%
- pest or weed control at 31 g/ha (Kochia (Kochia scoparia) [3]; Postemergence, 31 g ai/ha, visual injury after approx. 10 d, 0 to 100 scale, 0 no effect, 100 complete control, read-out: Plant response rating, Kochia): 0%
- plant injury at 125 g/ha (corn (Zea mays); 125 g ai/ha, postemergence, visual injury rating after approximately 10 d, read-out: Corn plant response rating (0 to 100 scale, 0 no effect, 100 complete control)): 80%
- Corn plant response rating (crop injury, 0 = no effect, 100 = complete kill) at 31 g/ha (corn (Zea mays); Postemergence, 31 g ai/ha, visual injury after approx. 10 d, 0 to 100 scale, 0 no effect, 100 complete control): 30%
- pest or weed control at 125 g/ha [4, 13]: 0%
- pest or weed control at 31 g/ha [4, 14]: 0%
- pest or weed control at 125 g/ha [5, 13]: 20%
- pest or weed control at 31 g/ha [5, 14]: 0%
- pest or weed control at 125 g/ha [6, 13]: 0%
- pest or weed control at 31 g/ha [6, 14]: 0%
- pest or weed control at 125 g/ha (Kochia (Kochia scoparia) [7]; [13]): 0%
- pest or weed control at 31 g/ha (Kochia (Kochia scoparia) [7]; [14]): 0%
- pest or weed control at 125 g/ha [8, 13]: 90%
- pest or weed control at 31 g/ha [8, 14]: 80%
- pest or weed control at 125 g/ha [9, 13]: 90%
- pest or weed control at 31 g/ha [9, 14]: 70%
- pest or weed control at 250 g/ha [10]: 90%
- pest or weed control at 250 g/ha (rice (Oryra sativa)): 0%
- pest or weed control at 250 g/ha [11]: 85%
- pest or weed control at 250 g/ha [12]: 0%
